The test system of one experiment is GABAA receptor. In words: 36Cl− uptake in cortical microsacs from PKCε−/− and PKCε+/+ mice (GABAA receptor function). The experiment is classed as biochemical, mouse. To be noted: for activation of GABAA receptors (muscimol-stimulated Cl− uptake): 10^−12M to 10^−9M, 1 μM muscimol.
For experiment [1], the system named is PKCε−/− and PKCε+/+ mice. Put plainly: locomotor activity in activity chambers after intraperitoneal injection. Type of experiment: in vivo, mouse. The note with it: for locomotor response (distance traveled), PKCε−/− compared to PKCε+/+: i.p.: diazepam 0.5, 1.5, 4.0 mg/kg, muscimol 0.1, 0.2, 0.4 mg/kg, MK-801 0.01, 0.02, 0.03 mg/kg.
Experiment [2] relates to PKCε−/− and PKCε+/+ mice. Put plainly: loss of righting reflex (LORR) after intraperitoneal injection. The note with it: for LORR duration / sensitivity to sedative effects, PKCε−/− compared to wild-type: Example 3, earlier experiment, sedative doses of pentobarbital. Type of experiment: in vivo, mouse.
The test system of another experiment is PKCε. In words: muscimol/flunitrazepam-stimulated 36Cl− uptake in saponin-permeabilized microsacs treated with PKCε inhibitor peptide. To be noted: for effect of peptide on the enhancing effect of flunitrazepam on muscimol-stimulated Cl− uptake: wild-type microsacs, 100 μM peptide, 1 μM muscimol and 0.1 μM flunitrazepam, 5 seconds. Type of experiment: biochemical, mouse. As for the experimental part:
GABAA receptor function was tested directly in wild-type and mutant mice. […] Following a five minute incubation in a shaking water bath at 34° C., chloride uptake in 200 μl membrane aliquots was initiated by the addition and immediate vortexing of 200 μl of a solution containing […] (0.2 μCi/ml of assay buffer). Drugs (muscimol, flunitrazepam, or ethanol) were added only in the ^36Cl^− solution. […] Hg) onto a 2.5 cm Whatman GF/C glass microfiber filter, using a Hoefer manifold (Hoefer Scientific, San Francisco, Calif.). The filters were washed with an additional 12 ml of cold assay buffer. Filters were submerged in Filtron-X (National Diagnostics) and the amount of radioactivity on the filters was determined by liquid scintillation spectrometry. Muscimol-dependent uptake was defined as the total amount of ^36Cl^− taken up while muscimol was present in the medium minus the amount of ^36Cl^− taken up when muscimol was not present.
Microsacs were then centrifuged again at 900× g for 15 min at 4° C. and re-suspended in assay buffer with protease inhibitors at 5 mg/ml immediately prior to assaying ^36Cl^− uptake.

Experiment [3] concerns PKCε−/− and PKCε+/+ mice. To be noted: two weeks liquid diet containing 5% ethanol; 2, 4, 6, 7 hours after removal. The protocol: Withdrawal seizures known as handling-induced convulsions (HIC) can be induced in mice by handling them after chronic exposure to ethanol. […] Withdrawal seizures were evaluated in 4 PKCε^+/+ and 4 PKCε^−/− mice following two weeks exposure to a fully nutritious liquid diet containing 5% ethanol (Dyets, Bethlehem, Pa.) as the only source of food or fluid. Seizures were videotaped at 2, 4, 6, and 7 hours following removal of ethanol from the cage and rated by observers who were blind to the genotype and drug exposure. Data were averaged across time-points and mice.

Experiment [4] has as its system PKCε−/− and PKCε+/+ mice. The note with it: 2-14% ethanol vs water, two-bottle choice.
Experiment [5] deals with PKCε−/− and PKCε+/+ mice. To be noted: 2.0 g/kg i.p. The protocol: Probes were perfused with artificial cerebrospinal fluid (aCSF), and animals were allowed to recover overnight. Mice were placed in open field chambers equipped with photobeams, and dialysis sample tubes were changed at 10 min intervals.
Where [6] appears, read: ethanol 3.2, 3.6, 4.0 g/kg i.p.

The text below walks through data of patent publication US7534859B2, “Protein kinase C epsilon as modulator of anxiety, alcohol consumption and self-administration of drugs of abuse” (The Regents of the University of California, priority 1998, dated 2009).

Where two headings read alike, the source gives them in different places.

Take `NCc1cc(=O)[nH]o1` [muscimol]: the “Cl− uptake stimulated by direct agonist, knockout compared to wild-type” value in the experiment with GABAA receptor (0-20 μM muscimol, 5 seconds) was “similar”. The “locomotor response (distance traveled), PKCε−/− compared to PKCε+/+” value (“locomotor response … compared to PKCε+/+” below) with PKCε−/− and PKCε+/+ mice [1] is given as “indistinguishable”.

Turning to `CCCC(C)C1(CC)C(=O)NC(=O)NC1=O` (centres unmarked) [pentobarbital], the “LORR duration / sensitivity to sedative effects, PKCε−/− compared to wild-type” value in the experiment with PKCε−/− and PKCε+/+ mice [2] (setting [6]) is reported as “two-fold greater sensitivity”. The “sensitivity to sedative effects (LORR), PKCε−/− compared to control mice” value with PKCε−/− and PKCε+/+ mice [2] (pentobarbital 30, 40, 50 mg/kg i.p., Example 6) is “three-fold greater sensitivity”.

On to `C[C@]12N[C@H](Cc3ccccc31)c1ccccc12` [MK-801], for which the “locomotor response … compared to PKCε+/+” value in the experiment with PKCε−/− and PKCε+/+ mice [1] was “No differences”.

In the case of `CN1C(=O)CN=C(c2ccccc2)c2cc(Cl)ccc21` [diazepam], the “sensitivity to sedative effects (LORR), PKCε−/− compared to PKCε+/+” value with PKCε−/− and PKCε+/+ mice [2] (diazepam 20, 30, 40 mg/kg i.p., Example 6) was found to be 30 fold. Besides, in the experiment with PKCε−/− and PKCε+/+ mice [1], the “locomotor response … compared to PKCε+/+” value was “significant increase in distance traveled”.

For the molecule “S-εV1-2: scrambled version of the εV1-2 peptide, LSETKPAV”, in the experiment on PKCε, the “effect of peptide on the enhancing effect of flunitrazepam on muscimol-stimulated Cl− uptake” value was “no effect”.

As for “εV1-2: selective inhibitor of PKCε, peptide EAVSLKPT”, the “effect of peptide on muscimol and flunitrazepam-stimulated 36Cl− uptake” value in the experiment with PKCε (microsacs from PKCε−/− mice) is on record as “did not affect”. Also, the “effect of peptide on the enhancing effect of flunitrazepam on muscimol-stimulated Cl− uptake” value with PKCε was “markedly increased”.

`CCO` [ethanol]: in the experiment with GABAA receptor (1 μM muscimol with 20 mM ethanol or 0.1 μM flunitrazepam), the “enhancement of muscimol-stimulated Cl− uptake, PKCε−/− microsacs compared to wild-type” value was “two-fold greater”. For the same molecule, the “reduction in withdrawal seizure severity (HIC score) compared to wildtype littermates” value with PKCε−/− and PKCε+/+ mice [3] was 50%. In addition, the “reduction in ethanol preference, PKCε−/− compared to PKCε+/+” value with PKCε−/− and PKCε+/+ mice [4] worked out at 75%. The “LORR duration / sensitivity to sedative effects, PKCε−/− compared to wild-type” value in the experiment with PKCε−/− and PKCε+/+ mice [2] (setting [6]) was “significantly higher LORR duration”. Besides, the “time required to regain righting reflex (LORR duration), PKCε−/− compared to PKCε+/+” value in the experiment with PKCε−/− and PKCε+/+ mice [2] (ethanol 3.2, 3.6, 4.0 g/kg i.p., Example 5) is listed as “two-fold increase”. The “extracellular dopamine levels in nucleus accumbens after administration” value is given as “transient increase in dopamine levels” in the experiment on PKCε−/− and PKCε+/+ mice [5] (PKCε+/+ mice); “No change in dopamine levels” in the experiment on PKCε−/− and PKCε+/+ mice [5] (PKCε−/− mice). The “increase in locomotor activity, PKCε−/− compared to PKCε+/+” value with PKCε−/− and PKCε+/+ mice [1] (male mice, 2 g/kg ethanol i.p., 15-minute period) is reported as “two-fold greater increase”.

Consider `CC(=O)[C@H]1CC[C@H]2[C@@H]3CC[C@H]4C[C@H](O)CC[C@]4(C)[C@H]3CC[C@]12C` [allopregnanolone, 3alpha-hydroxy-5alpha-pregnan-20-one], for which the “activation of GABAA receptors (muscimol-stimulated Cl− uptake)” value is recorded as “comparatively little effect” in the experiment on GABAA receptor (microsacs from PKCε+/+ mice) and “substantially activate” with GABAA receptor (microsacs from PKCε−/− mice).
